The record followed here is patent US20060062842A1, “Method of administering a compound to multi-drug resistant cells” (Alza Corporation, priority 1998, published 2006).

In assay [1] the test system is M109R-HiFR cells. The experiment in a line: Fluorescence tracking of doxorubicin in cells. In kind it is cell-based, murine.
Protocol: As described in Example 5, folate-targeted liposomes containing doxorubicin were prepared and incubated with M109R-HiFR cells. For comparison, M109R-HiFR cells were also incubated with free doxorubicin or with liposomes containing doxorubicin but with no folate targeting ligand.
In another study, the ability of the M109R-HiFR cells to retain doxorubicin after treatment for 1 hour with either free doxorubicin or with doxorubicin-loaded folate-targeted liposomes, followed by incubation in drug-free medium for 24 hours was examined.
M109 HIFR cells were plated, 24 hours prior to each study, on 24 mm cover slips inserted into 35 mm culture dishes. […]
Examination of the cells was done with inverted Zeiss confocal laser scanning microscope (LSM410) (Carl Zeiss, Jena, Germany). Maximum excitation was done by 543 nm line of the internal He-neon laser; fluorescence emission was observed above 570 nm with long-pass barrier filter LP-570) for rhodamine. For doxorubicin, maximum excitation was done by 488 nm line of internal Argon laser: fluorescence emission was observed above 515 nm with long pass barrier filter LP-515. […]
M109R-HiFr cells were incubated with free doxorubicin or with doxorubicin entrapped in folate-targeted liposomes at a doxorubicin concentration of 4×10^−5 M. The doxorubicin molecule was tracked using fluorescence.
Assay [2] deals with drug-resistance (M109R) cells. The experiment in a line: Cell-associated doxorubicin after exposure. In kind it is cell-based, murine. Conditions: Drug-Resistant Cells, 0.2×10^-5 M doxorubicin. As to the method:
(§1) The doxorubicin was administered to the cells in free form and entrapped in folate-targeted liposomes. The cell-associated drug was measured after 1 hour and 4 hours of exposure to doxorubicin.

In assay [3] the test system is drug-sensitive (M109) cells. The experiment in a line: Cell-associated doxorubicin after exposure. It is filed as cell-based, murine. Conditions: 0.5×10^-6 M doxorubicin. The procedure: as §1
Assay [4] concerns M109R-HiFR cells. Description: In vivo adoptive tumor growth assay, footpad. Further details: species or system BALB/c mice. The text has this: To examine the biological activity of drug delivered by the folate-pathway from folate-targeted liposomes in another model, M109R-HiFR cells in vitro were exposed to a test drug. These cells were inoculated into mice footpads. In this way, the growth of cells was tracked along a much longer time span than in in vitro experiments, and the influence of in vivo micro-environmental factors is brought into play. However, unlike therapeutic experiments, this type of in vivo adoptive assay is unaffected by pharmacokinetic and biodistribution factors which complicat the interpretation of results.
Accordingly, tumor cells in vitro were incubated with free doxorubicin or with liposome-entrapped, non-folate-targeted doxorubicin (DOXIL®) or with folate-targeted, liposome-entrapped doxorubicin in accord with the invention. As described in Example 9, the tumor cells were incubated in the presence of the selected formulation for 1 hour and then 1×10^6 cells were injected into the footpad of a mouse, each treatment formulation being injected into 8 mice.
At the end of the study on day 34 after injection of the treated tumor cells, the weight of each tumor-bearing mouse footpad was determined and […] to determine the tumor weight in each mouse footpad.
Female 10-week-old BALB/c mice were maintained in a specific pathogen-free facility. M109R-HiFR cells in in vitro suspension (10^7 cells/ml) were exposed to 10^−5M doxorubicin either as free drug, as liposome-entrapped (Doxil®), or as folate-targeted liposome-entrapped […], washed with PBS, and then resuspended at a concentration of 2×10^7 cells. Healthy, syngeneic BALB/c mice were injected into the right hind footpad with 50 μl (10^6 cells). The footpad thickness was measured with calipers once or twice a week for 5 weeks. After 35 days, mice were sacrificed, the final number of tumors recorded, and the control and tumor-inoculated footpads were sectioned at the ankle level and weighed. Tumor weight was estimated as the difference between the weight of the normal and tumor-bearing footpad. The statistical significance of differences in the final incidence of tumors per group was analyzed by contingency tables and the Fisher's exact test.

Assay [5] concerns tumor cells. The experiment in a line: Adoptive tumor growth assay, subcutaneous injection. It is filed as in vivo, mice. Conditions: treated tumor cells injected subcutaneously (FIG. 16). The text has this:
FIG. 16 is a plot showing the number of palpable tumors after subcutaneous injection of untreated (control, open circles) or in vitro treated tumor cells with free doxorubicin (closed circles), doxorubicin entrapped in non-targeted liposomes (open squares) and doxorubicin entrapped in folate-targeted liposomes (closed triangles).

The test system of assay [6] is M109R cells. The experiment in a line: Multidrug-resistance of M109R subline. In kind it is cell-based, murine. The text has this: (i) Cell lines: M109, a murine lung carcinoma line of BALB/c mice (Marks, T. A. et al., Cancer Treat. Rep., 61:1459-1470 ([…])), and a subline of these cells, M109R displaying multidrug-resistance, (approximately 100 fold increased resistance to doxorubicin) were used in most of the studies. Both cell lines express in vitro low amounts of folic acid receptors and are therefore referred to as M109-LoFR and M109R-LoFR. By culturing these cells in folic acid-free medium for several passages, two sublines expressing a high amount of folic acid receptors were obtained. These sublines were adapted to grow under low folic acid conditions with generation doubling times similar to the lines of origin.

Assay [7] concerns M109R-HiFR cells. The experiment in a line: Verapamil blockade of efflux pump and doxorubicin delivery. To be noted: for Intracellular Doxorubicin Content: 0.5×10^-5 M doxorubicin, verapamil 10 μmol where named.
For assay [8], the system named is M109-LoFR cells. The experiment in a line: Folic acid binding to cell lines. To be noted: incubation 30 min at 37° C. Further details: species or system murine. As to the method: (§2) These cell lines and their capacity to bind folic acid were determine as set forth in Example 2B, by incubating the cells for 30 minutes with folic acid at 37° C.
(§3) Radioactivity was determined by liquid scintillation counting.

The test system of assay [9] is M109R-LoFR cells. Description: Folic acid binding to cell lines. Further details: species or system murine. To be noted: incubation 30 min at 37° C. The procedure:
as §2, §3

The subject of assay [10] is Human Melanoma line A375. The experiment in a line: Folic acid binding to cell lines. Conditions: 30 min at 37° C. As to the method:
as §2, §3

In assay [11] the test system is Murine Lung Carcinoma High Folate Receptor cells. The experiment in a line: Folic acid binding to cell lines. Conditions: Murine Lung Carcinoma High Folate Receptor (printed M109R-HiFR); 30 min at 37° C. The procedure:
as §2, §3

In assay [12] the test system is Normal Human Fibroblasts. The experiment in a line: Folic acid binding to cell lines. Conditions: NHF; 30 min at 37° C. As to the method:
as §2, §3

Assay [13] deals with KB-HiFR cells. Description: Folic acid binding to cell lines. The arrangement: species or system human. The procedure: as §2, §3
Assay [14] has as its system KB-LoFR cells. Description: Folic acid binding to cell lines. The arrangement: species or system human. The procedure: as §2, §3
Assay [15] concerns M109R-HiFR cells. Description: Folic acid binding to cell lines.
The mark [16] stands for this setting: cells exposed in vitro to 10^-5 M doxorubicin, 5 weeks follow-up.

On to `COc1cccc2c1C(=O)c1c(O)c3c(c(O)c1C2=O)C[C@@](O)(C(=O)CO)C[C@@H]3O[C@H]1C[C@H](N)[C@H](O)[C@H](C)O1` [Free Doxorubicin, doxorubicin], for which the “doxorubicin fluorescence retained in cells” value in [1] (1 hour treatment, then 24 hours in drug-free medium (FIGS. 10C-10D)) is “almost completely waned”. In addition, the “time at which drug is located in the nucleus” value in assay [1] (doxorubicin 4×10^-5 M (FIGS. 9B, 9E)) was at most 30 min. The “Percent doxorubicin administered remaining in cells” value in [2] (exposure 1 hour) is 5.5%; in assay [2] (exposure 4 hours) it was 4.2%; in [3] (exposure 1 hour), 8.6%; in [3] (exposure 4 hours) it was 12.4%. Further, the intracellular doxorubicin was 159 ng/1.5 × 10^6 cells in [2] (exposure 1 hour), 122 ng/1.5 × 10^6 cells in assay [2] (exposure 4 hours), 25 ng/1.5 × 10^6 cells in [3] (exposure 1 hour) and 36.1 ng/1.5 × 10^6 cells in assay [3] (exposure 4 hours). Also, the “Final Tumor Incidence (%)” value in assay [4] (setting [16]) was 42%. The “Final Tumor Incidence (tumors/mice)” value in [4] (setting [16]) is recorded as 8/19. The “Median Tumor weight (range)” value in [4] (footpad tumor weight at end of study) was 239 (32-683) mg. For the same compound, in assay [4] (tumor cells treated in vitro, 10^6 cells injected into footpad (FIG. 15A)), the footpad thickness entry is listed as “increase in footpad thickness”. In addition, the “number of palpable tumors” value in assay [5] was “significant number of tumors”. For the same compound, in [6], the “increased resistance of M109R versus M109” value is listed as “approximately 100 fold”. For the same compound, the “cell fluorescence by flow cytometry in presence of verapamil” value in assay [7] (FIGS. 11A-11B) is “clear increase of cell fluorescence”. In addition, the “Intracellular Doxorubicin Content” value in assay [7] (exposure time 30 minutes) turned out to be 24 ng/1.5 × 10^6 cells; in assay [7] (exposure time 60 minutes), 42.5 ng/1.5 × 10^6 cells. Also, the “cell retention of doxorubicin in presence versus absence of verapamil” value in assay [7] (verapamil 10 μmol) is reported as around 4.5 fold.

Take `Nc1nc2ncc(CNc3ccc(C(=O)N[C@@H](CCC(=O)O)C(=O)O)cc3)nc2c(=O)[nH]1` [folic acid]: the “FOLIC ACID BINDING” value in [8] (M109-LoFR after culture in folic acid-depleted medium for 24 h) is given as 25 ± 13 FENTOMOLES/10^4 CELLS; in [8] (M109-LoFR), 20 ± 6 FENTOMOLES/10^4 CELLS; in assay [9] it was 27 ± 10 FENTOMOLES/10^4 CELLS; in [10] it was 168 ± 33 FENTOMOLES/10^4 CELLS; in [11] it was 678 ± 255 FENTOMOLES/10^4 CELLS; in assay [12], 45 ± 3 FENTOMOLES/10^4 CELLS. Further, the “FOLIC ACID BINDING” value is recorded as 9730 ± 79 FENTOMOLES/10^4 CELLS in assay [13] (KB-HiFR, 30 min at 37° C.); 6725 ± 323 FENTOMOLES/10^4 CELLS in assay [14] (KB-LoFR after culture in folic acid-depleted medium for 24 h, 30 min at 37° C.); 2179 ± 430 FENTOMOLES/10^4 CELLS in [15] (Multidrug-resistant High Folate Receptor M109R-HiFR, 30 min at 37° C.). In addition, in assay [13] (KB-HiFR (highest) compared with M109-LoFR (lowest)), the “difference in folic acid binding capacity” value is on record as “up to 485 fold”. Also, in assay [14] (KB-LoFR after 24 hours in folic acid-depleted medium), the “increase in folic acid binding” value is 15 fold. Moreover, in assay [15] (acid wash pH 3, binding at ~1° C. for 30 min), the “folic acid remaining bound following acid wash” value is 2±1%. In addition, the “loss of folic acid receptors shown by binding assay with folic acid” value in [15] (monolayers pretreated with PI-PLC) is on record as 99%. Also, the “cell-bound radiolabeled folic acid recovered after trypsinization” value in assay [15] (trypsin treatment) is listed as 91±11%.
